Laboratory results as given in US20110269166A1, “SEALING SURFACE SAMPLING PROBE APPLIED TO BLOOD SPOTS AND TISSUES” (UT-BATTELLE, LLC, priority 2010, published 2011).

Test: SSSP-MS/MS spot sampling of whole-body thin tissue sections of a propranolol dosed mouse
Assay type: in vivo
Settings: male CD-1 mouse, propranolol 7.5 mg/kg i.v., sacrificed 60 min post-dose, 40 μm section, ESI+
Method: At 60 min post-dose, mice were euthanized with an isoflurane overdose and immediately frozen in dry ice/hexane. The frozen mice were embedded/blocked in 2% aqueous carboxymethyl cellulose. Sagittal whole-body cryosections (40 μm thick) were prepared using a Leica CM3600 cryomacrotome and collected onto adhesive tape (8″×3″, 810 Scotch® Brand Magic™ Tape, 3M) then freeze-dried within the chamber of the cryomacrotome. Prior to analysis using the SSSP, tissue sections were stored in a desiccator at room temperature. Color images of the tissue sections were acquired using a HP Scanjet 4370 flat-bed scanner (Hewlett-Packard, Palo Alto, Calif., USA).
The inlet and outlet of the SSSP (“TLC-MS interface”, CAMAG, Muttenz, Switzerland) were coupled to an ACQUITY UltraPerformance Liquid Chromatography (UPLC) system (Waters Corporation, Manchester, UK) and to a 4000 QTRAP® mass spectrometer (MDS SCIEX, Concord, Ontario, Canada), respectively (see FIG. S1 in the Supplemental section). The gas pressure applied via a piston to the plunger of the SSSP interface was about 5 bar. The flow rate of the extraction solvent was 200 μL/min in all cases. For positive ion mode ESI, the emitter voltage was 5 kV and the turbo sprayer heater temperature was 300° C. For positive ion mode APCI, heated nebulizer probe temperature and needle current were 350° C. and 5 μA, respectively.
The extraction solvent flow paths and the individual steps of the surface sampling process with the SSSP are illustrated in FIGS. 3A-3E and 4A-4E. The solvent inlet capillary to the SSSP was connected to the UPLC pump, while the outlet capillary was connected to the ion source (ESI or APCI) of the mass spectrometer. At the beginning of a surface sampling experiment, a sample was positioned under the SSSP plunger while the extraction solvent flowed from the UPLC through a loop into the ion source (as in FIGS. 3A and 4A). Next, the SSSP stainless steel plunger, with 4-mm-diameter disk shape cutting edge, was lowered to seal the sampling area by cutting into and compressing the sample substrate (paper or adhesive tape in this case) (as in FIGS. 3B and 4B). By switching the valve from standby to extraction mode, the solvent previously being pumped directly to the ion source was diverted to the surface, where it extracted the analyte, and any other soluble components, and carried them into the ion source (FIGS. 3C and 4C). After a suitable extraction time (typically 60 seconds), the valve was switched back to direct the extraction solvent from the UPLC through the loop into the ion source (FIGS. 3D and 4D). […] In the final step of the surface sampling process, the plunger was raised up from the surface (FIGS. 3E and 4E) and then a cleaning station was positioned under the probe. Here, using push button control, the sampling face of the plunger was cleaned of accumulated particulate material using a stream of pressurized nitrogen. In the case of the tissue sections on tape, the probe actually cut out a section from the sample which stayed with the probe until removed by this gas jet cleaning. […] This washed the SSSP plunger face and tubing from the plunger to the valve and on into the ion source. Given 15 or 30 s to position the probe for analysis of a DBS or tissue sample spot, respectively, a 60 second extraction time and 60 s wash time to eliminate carryover, spot-to-spot analysis time was either […].
The tissue section was collected onto an adhesive tape substrate, which is a common format to collect whole-body tissue sections for WBA analyses.

Row | SRM signal in brain (spot 2) | SRM signal in heart (spot 5) | SRM signal in kidney (spot 3) | SRM signal in liver (spot 1) | SRM signal in lung (spot 6) | Molecule
1 | High |  |  |  |  | CC(C)NCC(O)COc1cccc2ccccc12 (stereo not drawn) [propranolol, reference compound]
2 | not detected | Much lower | highest | highest | Much lower | hydroxypropranolol glucuronide
